In US20070179125A1, “Aminopyrimidines useful as kinase inhibitors” (priority 2005, published 2007):

Legend:
Format in all cases: biochemical
Aurora-1 (Aurora B) = Aurora-1 (Aurora B) (Homo sapiens, UniProt Q96GD4); test: Aurora-1 (Aurora B) inhibition assay (radiometric); conditions: 800 μM ATP, Kemptide, 25° C.
Description: An assay buffer solution was prepared which consisted of 25 mM HEPES (pH 7.5), 10 mM MgCl2, 0.1% BSA and 10% glycerol. A 22 nM Aurora-B solution, also containing 1.7 mM DTT and 1.5 mM Kemptide (LRRASLG), was prepared in assay buffer. To 22 μL of the Aurora-B solution, in a 96-well plate, was added 2 μl of a compound stock solution in DMSO and the mixture allowed to equilibrate for 10 minutes at 25° C. The enzyme reaction was initiated by the addition of 16 μl stock [γ-^33P]-ATP solution (˜20 nCi/μL) prepared in assay buffer, to a final assay concentration of 800 μM. The reaction was stopped after 3 hours by the addition of 16 μL 500 mM phosphoric acid and the levels of ^33P incorporation into the peptide substrate were determined by the following method.
A phosphocellulose 96-well plate (Millipore, Cat no. MAPHNOB50) was pre-treated with 100 μL of a 100 mM phosphoric acid prior to the addition of the enzyme reaction mixture (40 μL). […] Levels of non-enzyme catalyzed background radioactivity were determined by adding 16 μL of the 500 mM phosphoric acid to control wells, containing all assay components (which acts to denature the enzyme), prior to the addition of the [γ-^33P]-ATP solution. Levels of enzyme catalyzed ^33P incorporation were calculated by subtracting mean background counts from those measured at each inhibitor concentration. […]

JAK3 = target: T1, JAK3 (Homo sapiens, UniProt P52333); test: JAK3 inhibition assay; conditions: 5 μM ATP, 1 μM poly(Glu)4Tyr, 1 nM JAK3, 25° C.
T1 sequence (P52333 1-1124): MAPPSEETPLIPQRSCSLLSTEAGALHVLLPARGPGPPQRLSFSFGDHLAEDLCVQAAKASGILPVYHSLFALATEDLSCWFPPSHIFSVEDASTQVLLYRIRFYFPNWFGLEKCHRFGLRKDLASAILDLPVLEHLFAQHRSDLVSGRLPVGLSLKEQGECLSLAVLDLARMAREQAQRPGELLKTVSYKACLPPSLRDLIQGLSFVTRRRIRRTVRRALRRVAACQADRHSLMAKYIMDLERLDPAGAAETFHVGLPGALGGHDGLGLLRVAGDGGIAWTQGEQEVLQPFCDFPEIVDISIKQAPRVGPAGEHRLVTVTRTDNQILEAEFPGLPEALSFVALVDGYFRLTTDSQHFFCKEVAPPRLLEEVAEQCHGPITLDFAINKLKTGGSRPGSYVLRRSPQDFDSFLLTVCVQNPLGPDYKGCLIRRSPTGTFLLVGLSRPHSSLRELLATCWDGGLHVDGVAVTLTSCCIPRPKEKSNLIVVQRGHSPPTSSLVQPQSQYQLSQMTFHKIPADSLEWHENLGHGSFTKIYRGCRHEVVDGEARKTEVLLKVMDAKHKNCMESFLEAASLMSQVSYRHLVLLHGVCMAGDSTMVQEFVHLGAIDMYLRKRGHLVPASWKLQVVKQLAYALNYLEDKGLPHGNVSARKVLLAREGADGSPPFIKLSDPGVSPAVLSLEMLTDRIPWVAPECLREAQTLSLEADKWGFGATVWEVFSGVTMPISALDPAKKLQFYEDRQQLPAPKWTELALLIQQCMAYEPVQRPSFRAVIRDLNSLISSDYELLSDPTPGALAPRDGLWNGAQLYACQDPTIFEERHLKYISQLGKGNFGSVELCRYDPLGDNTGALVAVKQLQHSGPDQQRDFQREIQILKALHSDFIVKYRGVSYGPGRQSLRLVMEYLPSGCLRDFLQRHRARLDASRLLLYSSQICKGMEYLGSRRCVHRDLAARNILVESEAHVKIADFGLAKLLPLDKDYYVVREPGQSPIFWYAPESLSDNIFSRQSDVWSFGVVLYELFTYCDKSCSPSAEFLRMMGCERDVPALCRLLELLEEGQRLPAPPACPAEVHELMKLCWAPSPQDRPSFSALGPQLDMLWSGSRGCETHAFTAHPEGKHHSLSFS
Description: (§1) Compounds were screened for their ability to inhibit JAK using the assay shown below. Reactions were carried out in a kinase buffer containing 100 mM HEPES (pH 7.4), 1 mM DTT, 10 mM MgCl2, 25 mM NaCl, and 0.01% BSA.
(§2) Substrate concentrations in the assay were 5 μM ATP (200 uCi/μmole ATP) and 1 μM poly(Glu)4Tyr. Reactions were carried out at 25° C. and 1 nM JAK3.
(§3) To each well of a 96 well polycarbonate plate was added 1.5 μl of a candidate JAK3 inhibitor along with 50 μl of kinase buffer containing 2 μM poly(Glu)4Tyr and 10 μM ATP. This was then mixed and 50 μl of kinase buffer containing 2 nM JAK3 enzyme was added to start the reaction. After 20 minutes at room temperature (25 C), the reaction was stopped with 50 μl of 20% trichloroacetic acid (TCA) that also contained 0.4 mM ATP. The entire contents of each well were then transferred to a 96 well glass fiber filter plate using a TomTek Cell Harvester. After washing, 60 μl of scintillation fluid was added and ^33P incorporation detected on a Perkin Elmer TopCount.

human Itk kinase = target: T2, human Itk kinase (Homo sapiens, UniProt Q08881); test: Itk inhibition assay, radioactivity-based; conditions: Ki(app); 7.5 μM ATP, 3 μM SAM68 peptide, 50 nM Itk, 25° C.
T2 sequence (Q08881 1-620): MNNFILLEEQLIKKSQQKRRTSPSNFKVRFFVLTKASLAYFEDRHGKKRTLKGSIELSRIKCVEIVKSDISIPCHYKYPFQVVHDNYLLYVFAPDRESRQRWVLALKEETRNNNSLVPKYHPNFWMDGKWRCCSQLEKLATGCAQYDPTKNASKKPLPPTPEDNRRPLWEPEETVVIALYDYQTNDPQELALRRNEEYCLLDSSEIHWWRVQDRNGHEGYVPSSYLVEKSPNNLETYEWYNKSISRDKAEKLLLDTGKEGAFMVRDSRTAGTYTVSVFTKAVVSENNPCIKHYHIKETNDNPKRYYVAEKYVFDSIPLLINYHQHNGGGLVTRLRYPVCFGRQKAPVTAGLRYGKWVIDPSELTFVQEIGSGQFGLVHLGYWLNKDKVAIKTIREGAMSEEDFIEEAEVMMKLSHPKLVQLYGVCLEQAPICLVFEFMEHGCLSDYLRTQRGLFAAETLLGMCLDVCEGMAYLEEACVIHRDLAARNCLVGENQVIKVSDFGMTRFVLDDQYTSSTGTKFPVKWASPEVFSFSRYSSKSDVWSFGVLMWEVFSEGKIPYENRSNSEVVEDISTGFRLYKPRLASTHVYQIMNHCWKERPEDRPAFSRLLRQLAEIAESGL
Description: The compounds of the present invention were evaluated as inhibitors of human Itk kinase using a radioactivity-based assay.
Assays were carried out in a mixture of 20 mM MOPS (pH 7.0), 10 mM MgCl2, 0.1% BSA and 1 mM DTT. Final substrate concentrations in the assay were 7.5 μM [γ-^33P]ATP (400 μCi ^33P ATP/μmol ATP, Amersham Pharmacia Biotech/Sigma Chemicals) and 3 μM peptide (SAM68 protein Δ332-443). Assays were carried out at 25° C. in the presence of 50 nM Itk. An assay stock buffer solution was prepared containing all of the reagents listed above, with the exception of ATP and the test compound of interest. 50 μL of the stock solution was placed in a 96 well plate followed by addition of 2 μL of DMSO stock containing serial dilutions of the test compound (typically starting from a final concentration of 50 μM with 2-fold serial dilutions) in duplicate (final DMSO concentration 2%). The plate was pre-incubated for 10 minutes at 25° C. and the reaction initiated by addition of 50 μL [γ-^33P]ATP (final concentration 7.5 μM).
The reaction was stopped after 10 minutes by the addition of 100 μL 0.2M phosphoric acid+0.01% TWEEN 20. […]
Ki(app) data were calculated from non-linear regression analysis of the initial rate data using the Prism software package (GraphPad Prism version 3.0cx for Macintosh, GraphPad Software, San Diego Calif., USA).

JAK-2 enzyme = JAK-2 enzyme (Homo sapiens, UniProt O60674); test: JAK2 inhibition assay; conditions: 12 μM ATP, 15 μM poly(Glu)4Tyr
Description: as §1, §2, §3
The assays are as described above in Example 3 except that JAK-2 enzyme is used, the final poly(Glu)4Tyr concentration is 15 μM, and final ATP concentration is 12 μM.

Aurora-2 (Aurora A) = target: T3, Aurora-2 (Aurora A) (Homo sapiens, UniProt O14965); test: Aurora-2 (Aurora A) inhibition assay, coupled enzyme; conditions: 400 μM ATP, 570 μM Kemptide, 40 nM Aurora-2, 30° C.
T3 sequence (O14965 1-403): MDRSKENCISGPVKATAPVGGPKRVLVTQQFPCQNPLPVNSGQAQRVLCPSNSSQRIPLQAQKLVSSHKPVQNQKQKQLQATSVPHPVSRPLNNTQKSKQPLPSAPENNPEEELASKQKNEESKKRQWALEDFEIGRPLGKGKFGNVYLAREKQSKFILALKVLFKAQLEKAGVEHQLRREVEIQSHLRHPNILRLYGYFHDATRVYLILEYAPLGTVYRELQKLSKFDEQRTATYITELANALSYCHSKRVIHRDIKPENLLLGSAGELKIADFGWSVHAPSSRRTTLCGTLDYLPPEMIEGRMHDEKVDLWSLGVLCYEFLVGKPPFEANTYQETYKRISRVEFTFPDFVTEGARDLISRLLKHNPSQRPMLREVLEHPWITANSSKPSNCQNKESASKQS
Description: Compounds were screened for their ability to inhibit Aurora-2 using a standard coupled enzyme assay (Fox et al., Protein Sci., (1998) 7, 2249). Assays were carried out in a mixture of 100 mM Hepes (pH7.5), 10 mM MgCl2, 1 mM DTT, 25 mM NaCl, 2.5 mM phosphoenolpyruvate, 300 μM NADH, 30 μg/ml pyruvate kinase and 10 μg/ml lactate dehydrogenase. Final substrate concentrations in the assay are 400 μM ATP (Sigma Chemicals) and 570 μM peptide (Kemptide, American Peptide, Sunnyvale, Calif.). Assays were carried out at 30° C. and in the presence of 40 nM Aurora-2.
An assay stock buffer solution was prepared containing all of the reagents listed above, with the exception of Aurora-2 and the test compound of interest. 55 μl of the stock solution was placed in a 96 well plate followed by addition of 2 μl of DMSO stock containing serial dilutions of the test compound (typically starting from a final concentration of 7.5 μM). The plate was preincubated for 10 minutes at 30° C. and the reaction initiated by addition of 10 μl of Aurora-2. Initial reaction rates were determined with a Molecular Devices SpectraMax Plus plate reader over a 10 minute time course. IC50 and Ki data were calculated from non-linear regression analysis using the Prism software package (GraphPad Prism version 3.0cx for Macintosh, GraphPad Software, San Diego Calif., USA).

Sequence of Aurora-1 (Aurora B) (Q96GD4 whole entry, species assumed): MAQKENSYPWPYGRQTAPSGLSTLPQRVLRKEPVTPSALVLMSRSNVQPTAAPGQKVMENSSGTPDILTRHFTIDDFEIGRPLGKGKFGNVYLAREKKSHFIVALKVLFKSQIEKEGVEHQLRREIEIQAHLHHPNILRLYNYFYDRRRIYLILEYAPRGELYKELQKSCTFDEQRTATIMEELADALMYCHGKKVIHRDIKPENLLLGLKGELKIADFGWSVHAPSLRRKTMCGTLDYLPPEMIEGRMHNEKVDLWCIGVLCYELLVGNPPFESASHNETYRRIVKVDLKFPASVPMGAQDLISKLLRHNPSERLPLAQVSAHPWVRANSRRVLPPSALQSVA
Sequence of JAK-2 enzyme (O60674 whole entry, species assumed): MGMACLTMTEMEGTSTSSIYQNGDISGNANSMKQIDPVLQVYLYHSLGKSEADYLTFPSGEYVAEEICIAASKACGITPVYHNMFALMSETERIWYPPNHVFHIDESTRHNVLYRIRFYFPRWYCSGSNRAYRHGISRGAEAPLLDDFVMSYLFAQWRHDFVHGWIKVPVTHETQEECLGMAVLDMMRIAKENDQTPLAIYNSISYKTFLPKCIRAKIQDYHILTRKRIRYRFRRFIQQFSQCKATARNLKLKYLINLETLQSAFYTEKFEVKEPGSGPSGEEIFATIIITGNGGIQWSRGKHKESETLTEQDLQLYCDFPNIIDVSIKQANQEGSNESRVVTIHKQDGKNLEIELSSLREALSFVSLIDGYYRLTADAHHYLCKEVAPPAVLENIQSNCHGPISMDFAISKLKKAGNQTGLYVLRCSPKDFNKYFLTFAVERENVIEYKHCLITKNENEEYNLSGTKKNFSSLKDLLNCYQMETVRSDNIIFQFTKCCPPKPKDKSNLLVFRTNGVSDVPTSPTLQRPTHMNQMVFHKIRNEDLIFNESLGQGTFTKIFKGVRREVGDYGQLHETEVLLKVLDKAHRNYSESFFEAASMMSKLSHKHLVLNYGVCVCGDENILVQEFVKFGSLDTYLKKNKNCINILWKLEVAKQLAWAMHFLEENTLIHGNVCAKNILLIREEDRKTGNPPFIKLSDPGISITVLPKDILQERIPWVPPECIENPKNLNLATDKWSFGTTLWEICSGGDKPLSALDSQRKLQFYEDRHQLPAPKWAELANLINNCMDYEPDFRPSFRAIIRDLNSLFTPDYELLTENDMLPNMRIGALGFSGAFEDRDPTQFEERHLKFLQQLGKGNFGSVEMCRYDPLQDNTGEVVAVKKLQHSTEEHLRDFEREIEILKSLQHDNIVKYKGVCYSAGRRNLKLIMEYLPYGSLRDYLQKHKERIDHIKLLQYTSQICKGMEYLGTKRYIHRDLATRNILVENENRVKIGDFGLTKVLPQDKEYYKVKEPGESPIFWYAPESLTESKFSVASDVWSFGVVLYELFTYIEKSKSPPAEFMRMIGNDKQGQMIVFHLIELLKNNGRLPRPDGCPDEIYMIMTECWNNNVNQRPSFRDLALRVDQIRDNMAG

| SMILES | Ki (Aurora-1 (Aurora B)) | Ki (JAK3) | Ki (human Itk kinase) | Ki (JAK-2 enzyme) | Ki (Aurora-2 (Aurora A)) |
| --- | --- | --- | --- | --- | --- |
| Cc1cc(Nc2cc(N3CC(F)(C4CC4)C3)nc(O[C@H]3CCN(C(=O)c4cc(Cl)ccc4F)C3)n2)[nH]n1 [Compound I-3, (S)-(5-chloro-2-fluorophenyl)(3-(4-(3-cyclopropyl-3-fluoroazetidin-1-yl)-6-(3-methyl-1H-pyrazol-5-ylamino)pyrimidin-2-yloxy)pyrrolidin-1-yl)methanone] | < 0.025 µM | < 0.25 µM |  |  |  |
| Cc1cc(Nc2cc(N3CCC3)nc(O[C@H]3CCN(C(=O)OC(C)(C)C)C3)n2)[nH]n1 [Compound I-1, (S)-3-[4-Azetidin-1-yl-6-(5-methyl-2H-pyrazol-3-ylamino)-pyrimidin-2-yloxy]-pyrrolidine-1-carboxylic acid tert-butyl ester] |  |  | < 1 µM | < 0.25 µM | < 0.05 µM |
